“Also recorded” adds a separate entry of the source.
Key:
[1] = test system: intracellular forms of L.braziliensis in J774.2 macrophages; assay: Infection rate and parasite growth in infected macrophage cultures; format: cell-based, Leishmania braziliensis; details: compound at IC25, 10 days
Procedure: (§1) Methodology: Macrophages of the J774.2 line preserved in the laboratory of the present inventors by cryopreservation at -80° C. and successive runs in MEM+Glutamine + 20% SBFI medium were used, which were deposited in a […] tube and centrifuged at 100 g for 5 minutes. The supernatant was discarded and the cells were resuspended in medium corresponding to a final concentration of 1×10^6 cells/ml. Subsequently, 10 μl of the cell suspension was deposited into each well of a 24-well culture plate each with a 10 mm diameter round slide. A final volume of 500 μl was completed with the culture medium and incubated for 24 h at 37° C. in humid atmosphere with 5% CO2. […] The non-phagocytic parasites and products were removed by washing and the infected cultures were maintained for 10 days in fresh medium added every 48 hours. The activity of the compounds was determined by the percentage of infected cells and the number of amastigotes per infected cell. Finally, the cultures were fixed and stained with methanol and Giemsa.

[2] = test system: intracellular forms of L.donovani in J774.2 macrophages; assay: as above; format: cell-based, Leishmania donovani; details: compound at IC25, 10 days
Procedure: as §1

[3] = test system: FeSOD of promastigote forms of L.donovani; assay: In vitro inhibition of FeSOD (NBT reduction); format: biochemical, Leishmania donovani
Procedure: Methodology: Compounds that were selected from the leishmanicidal activity shown in previous experiments were evaluated as inhibitors of FeSOD enzyme activity, which is unique to the kinetoplastid parasites to which Leishmania belongs. Being exclusive, it is absent in the vertebrate host, since these usually have an analogous form of that enzyme, but complexed to a copper or zinc atom (Cu/ZnSOD). For this reason, this enzyme is a therapeutic target for the design of new drugs, since the capture of the metal ion by complexing mechanisms can inactivate the enzyme and compromise the survival of the parasite with the appearance of free radicals.
Inhibition caused by the novel compounds on FeSOD/ Cu-Zn SOD activity was quantified on the spectrophotometer at 560 nm according to the technique described by [W F. Beyer. I. Fridovich. Anal Biochem. 1987. […]
Briefly, the cultured parasites as described in Example 1 underwent centrifugation, the pellet was resuspended (0.5 - 0.6 g/ml) in 3 ml of STE buffer (0.25 M. Tris-HCI 25 mM sucrose. 1 M EDTA. pH 7.8) and underwent 3 cycles of sonication from 30 s at 60 V. Then, it was centrifuged at 1500 g for 10 min at 4° C. and the pellet was washed 3 times with ice-cooled STE buffer. […] Protein concentrations were determined by means of the Bradford method (Sigma-Aldrich) using bovine serum albumin as standard. […]

[4] = test system: L.braziliensis promastigotes; assay: Alteration of production and excretion of metabolites (1H NMR); format: cell-based, Leishmania braziliensis; details: compound at IC25, 72 h; for Succinate production: versus control
Procedure: (§2) Methodology: Promastigotes from the three species studied were used for this study. They were left to grow in a culture flask and subsequently transferred to a 25 ml capacity conical bottom flask (steriling) so that there were 5×10^4 parasites/ml in each one. The amount of compound needed to reach IC25 of each product was added and completed with fresh culture medium to reach a final volume of 3 ml and incubated at 28° C. for 72 h. After that time, the flasks were centrifuged at 400 g for 10 minutes, and 2 ml of supernatant was transferred to Eppendorf® tubes. Next, they were analysed using proton nuclear resonance and the spectra were analysed with the Mestre Nova® software to obtain the metabolite production and excretion graphs. From these graphs, it can be inferred which enzyme has seen its activity altered by action of the compounds, depending on the increase or decrease of the metabolite produced by it.
(§3) Both the decrease and increase in the metabolites analysed can be positive effects, indicating a malfunctioning of the metabolic pathway.

L.donovani promastigotes = assay: as above; format: cell-based, Leishmania donovani; details: compound at IC25, 72 h
Procedure: as §2, §3

[5] = biological target: T1, CuZnSOD of human erythrocytes (Homo sapiens, UniProt P00441); assay: In vitro inhibition of CuZnSOD (NBT reduction); format: biochemical
T1 construct: the Cu/Zn-superoxide dismutase of human red blood cells from Boehringer Mannheim was used; purchased Boehringer Mannheim; host or cells: human red blood cells (erythrocytes)
From the text: To conduct this assay, the Cu/Zn-superoxide dismutase of human red blood cells from Boehringer Mannheim was used, whilst the coenzymes and substrates were obtained from Sigma-Aldrich.
Inhibition caused by the novel compounds on FeSOD/ Cu-Zn SOD activity was quantified on the spectrophotometer at 560 nm according to the technique described by [W F. Beyer. I. Fridovich. Anal Biochem. 1987. 161: 559-66] based on the determination of the reduction of NBT (nitro blue tetrazolium) by superoxide ions and which the group of the present inventors has developed for the assay in trypanosomatides, being a routine technique in the laboratory of said group [F. Luque. et. al. Comp. Biochem. Physiol. C Toxicol. Pharmacol. 2000. […]
Briefly, the cultured parasites as described in Example 1 underwent centrifugation, the pellet was resuspended (0.5 - 0.6 g/ml) in 3 ml of STE buffer (0.25 M. Tris-HCI 25 mM sucrose. 1 M EDTA. pH 7.8) and underwent 3 cycles of sonication from 30 s at 60 V. Then, it was centrifuged at 1500 g for 10 min at 4° C. and the pellet was washed 3 times with ice-cooled STE buffer. […] Protein concentrations were determined by means of the Bradford method (Sigma-Aldrich) using bovine serum albumin as standard. […] A first measurement of the absorbance at 560 nm was made on a spectrophotometer and, after 10 minutes under light and under stirring conditions, the absorbance was re-determined. […]

L.infantum promastigotes = assay: Alteration of production and excretion of metabolites (1H NMR); format: cell-based, Leishmania infantum; details: compound at IC25, 72 h, versus control
Procedure: as §2, §3

T1 sequence (P00441 whole entry): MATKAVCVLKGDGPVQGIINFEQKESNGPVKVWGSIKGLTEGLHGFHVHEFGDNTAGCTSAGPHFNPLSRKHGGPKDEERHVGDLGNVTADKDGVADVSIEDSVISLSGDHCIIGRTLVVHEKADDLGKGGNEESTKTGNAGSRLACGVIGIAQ

Row | Compound | Number of amastigotes per infected cell [1] | Percentage of infection (infection rate) [1] | Number of amastigotes per infected cell [2] | Percentage of infection (infection rate) [2] | Concentration for 50% inhibition (IC50) of FeSOD of L.donovani [3] | Production and excretion of metabolites (metabolism, other metabolites analysed) [4] | Succinate production [4] | Production and excretion of metabolites (metabolism, other metabolites analysed) (L.donovani promastigotes) | Succinate production (L.donovani promastigotes; versus control) | Concentration for 50% inhibition (IC50) of CuZnSOD of human erythrocytes [5] | Succinate production (L.infantum promastigotes)
1 | CNCCNCc1cccnc1 [Compound 2, 1-{3-pyridyl)-2,5-diazahexane] | lowest values over time; also recorded: effective by decreasing | lowest values over time; also recorded: effective by decreasing | lowest values over time; also recorded: effective by decreasing | lowest values over time; also recorded: effective by decreasing | lower than that necessary for the enzyme of human erythrocytes; also recorded: showed ability to inhibit FeSOD; also recorded: low IC50 value | practically does not alter the other metabolites analysed | a certain increase of succinate | all the metabolites analysed increase | increase in succinate production | – | –
2 | CN(C)CCNCc1ccccn1 [Compound 4, 1-(2-pyridyl)-5-methyl-2,5-diazahexane] | effective by decreasing | effective by decreasing | effective by decreasing | effective by decreasing | lower than that necessary for the enzyme of human erythrocytes; also recorded: showed ability to inhibit FeSOD | decrease of the remaining metabolites analysed | increase in succinate production | – | – | high IC50 value | increase in succinate production
